Assay results published in patent US12458659B2, “Methods for treating macrophage-mediated diseases, and methods of identifying agents useful therefore” (The Regents of the University of California, priority 2019, dated 2025).

Tested on: choline mobilization via the Kennedy pathway
Test: Choline, phosphocholine and phosphatidylcholine content of LPS-stimulated BMDM (NMR, MS)
Format: cell-based, mouse
Settings: RSM932A-pretreated BMDM, LPS 4 hr
Method: Choline and Phosphocholine Analysis by NMR—BMDM were treated with LPS for 4 hr and then were collected and processed for NMR analysis as described (Guma et al., 2015a; Tiziani et al., 2009). Polar metabolite isolation was performed using a modified Bligh-Dyer procedure (Wu et al., 2008). Extracts were dried using a CentriVap refrigerated vacuum concentrator (Labconco, Kansas City, MO, USA). Dried extracts were reconstituted in 100 mM phosphate buffer (pH 7.0) prepared in 10% H2O/90% D2O (Sigma) that contained 0.5 mM sodium 3-(trimethylsilyl)propionate-2,2,3,3,-d4 (TMSP) as the internal standard. One-dimensional ^1H NMR spectra were acquired on a Bruker Avance III 500 MHz with 1.7 mm TCI MicroCryoProbe system (Bruker BioSpin Corp., Billerica, MA) equipped with an autosampler at 300 K and processed as previously described (Lodi et al., 2017; Lu et al., 2017; Ludwig and Gunther, 2011). Metabolite assignment and quantification were performed using the Chenomx 8.2 NMR Suite (Chenomx Inc., Edmonton, Alberta, Canada), the Birmingham Metabolite Library (Ludwig et al., 2012), and the Human Metabolome Database (Wishart et al., 2012).
Total phosphatidylcholine and mitochondrial lipids analysis by mass spectrometry—Total phosphatydilcholine (PC) analysis was measured in RSM932A-pretreated BMDM stimulated with LPS for 4 hr, while mitochondrial lipids were measured in mitochondria isolated from BMDM cultured in control or choline deficient medium and subjected to different treatments for 24 hr. Samples were processed for UHPLC-MS/MS analysis and analysis was performed on a hybrid quadrupole-Orbitrap mass spectrometer (Q Exactive, Thermo Scientific, Bremen, Germany) coupled to an Accela 1250 UHPLC system equipped with a quaternary pump, vacuum degasser, and open autosampler with temperature controller (6° C.; Fisher Scientific, San Jose, CA, USA). […]

C/[N+](c1ccc(Cl)cc1)=c1\ccn(Cc2ccc(-c3ccc(Cn4cc/c(=[N+](/C)c5ccc(Cl)cc5)c5ccccc54)cc3)cc2)c2ccccc12 [RSM932A]
LPS-induced increase in cellular content of phosphocholine, glycerol-3-phosphocholine and phosphatidylcholine (PC): blocked
